Each structure is given as a SMILES string. Where a name gives a salt, the structure may show the parent alone. Read-outs that look alike come from different tables or passages of the source.

Here are results for 3 compounds from article PMC7377239, “Cardiovascular Effects of Polychlorinated Biphenyls and Their Major Metabolites” (Environmental Health Perspectives, 2020).

Test [1] has as its system iCell endothelial cells (human iPSC-derived ECs). Kind of test: Tube formation (tubulogenesis) assay in iCell endothelial cells, 18 h. Format: cell-based. To be noted: Homo sapiens, Endothelial cell, 18 hr; for activity at 0.1 µM: 0.10 µM. The essentials:
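iCell ECs (passages 1–5) seeded 7,500 cells/well on reduced-growth-factor Geltrex in starvation medium, exposed overnight at 37°C to compounds in triplicate concentration–response (0.5% DMSO vehicle). Calcein AM staining, 4× imaging, angiogenesis image analysis; readouts normalized to vehicle, four-parameter logistic fit, POD at 1 SD of vehicle; 100 μM assigned NOAEL if no response.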

Another test concerns HUVECs. Kind of test: Tube formation (tubulogenesis) assay in HUVECs, 18 h. To be noted: Homo sapiens, HUVEC, 18 h; for activity at 0.1 µM: 0.10 µM. Format: cell-based, human. Summed up:
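HUVECs (passage 1–5) seeded on reduced-growth-factor basement membrane and exposed to compounds overnight at 37°C, 5% CO2, in 2× maintenance medium with 12.5 ng/mL VEGF; 0.5% DMSO vehicle. Calcein AM-stained tube networks imaged and analysed; vehicle-normalized readouts fit to four-parameter logistic, POD set at one SD of vehicle means.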

Setting [2] is: iPSC-EC tube formation, 0.00 µM control = 100.00, read-out: endo.mtl.18hr.
The mark [3] stands for this setting: iPSC-EC tube formation, 0.00 µM control = 100.00, read-out: endo.tlps.18hr.
The mark [4] stands for this setting: iPSC-EC tube formation, 0.00 µM control = 100.00, read-out: endo.tta.18hr.
Where [5] appears, read: iPSC-EC tube formation, 0.00 µM control = 100.00, read-out: endo.ttl.18hr.
Setting [6] is: HUVECs, 0.00 µM = 100.00, read-out: huvec.mtl.18hr.
Where [7] appears, read: HUVECs, 0.00 µM = 100.00, read-out: huvec.tlps.18hr.
Setting [8] is: HUVECs, 0.00 µM = 100.00, read-out: huvec.tta.18hr.
Where [9] appears, read: HUVECs, 0.00 µM = 100.00, read-out: huvec.ttl.18hr.
Setting [10] is: endothelial cells (endo), tube formation mtl, read-out: POD endo.mtl.18hr.
Where [11] appears, read: endothelial cells (endo), tube formation tlps, read-out: POD endo.tlps.18hr.
[12] abbreviates: endothelial cells (endo), tube formation tta, read-out: POD endo.tta.18hr.
Where [13] appears, read: endothelial cells (endo), tube formation ttl, read-out: POD endo.ttl.18hr.
Setting [14] is: tube formation mtl, read-out: POD huvec.mtl.18hr.
Where [15] appears, read: tube formation tlps, read-out: POD huvec.tlps.18hr.
[16] abbreviates: tube formation tta, read-out: POD huvec.tta.18hr.
The mark [17] stands for this setting: tube formation ttl, read-out: POD huvec.ttl.18hr.

Take `Oc1cccc(-c2ccc(Cl)cc2)c1` [3'-OH PCB3]: the activity at 0.01 µM in test [1] (setting [2]) was determined as 98%; in test [1] (setting [3]), 99.3%; in test [1] (setting [4]), 119%; in test [1] (setting [5]), 114%; in the test on HUVECs (setting [6]), 96.9%; with HUVECs (setting [7]) it was 88.1%. The activity at 0.01 µM in the test with HUVECs (setting [8]) was 90.6%; in the test on HUVECs (setting [9]) it was 92%. Besides, the activity at 0.1 µM in test [1] (setting [2]) came out at 85.4%; in test [1] (setting [3]), 107%; in test [1] (setting [4]), 73%; in test [1] (setting [5]), 72.3%; in the test with HUVECs (setting [6]), 102%; in the test on HUVECs (setting [7]), 83.7%. The activity at 0.1 µM with HUVECs (setting [8]) came to 124%; with HUVECs (setting [9]) it was 127%. Besides, the activity at 1 µM in test [1] (setting [2]) amounted to 88.6%; in test [1] (setting [3]), 76.7%; in test [1] (setting [4]) it was 71.5%; in test [1] (setting [5]) it was 69.4%; in the test with HUVECs (setting [6]), 93%; with HUVECs (setting [7]), 89.2%. Moreover, the activity at 1 µM is 91.7% with HUVECs (setting [8]) and 95.4% in the test on HUVECs (setting [9]). For the same compound, the activity at 10 µM came to 59% in test [1] (setting [2]); 33.8% in test [1] (setting [3]); 39.4% in test [1] (setting [4]); 39.8% in test [1] (setting [5]); 70.2% in the test with HUVECs (setting [6]); 66.1% with HUVECs (setting [7]). Moreover, the activity at 10 µM stood at 58.6% in the test on HUVECs (setting [8]) and 61.5% in the test on HUVECs (setting [9]). In addition, the activity at 100 µM in test [1] (setting [2]) was 46%; in test [1] (setting [3]), 11.7%; in test [1] (setting [4]), 1.49%; in test [1] (setting [5]), 2.14%; in the test with HUVECs (setting [6]), 72.3%; with HUVECs (setting [7]) it was 25.9%. The activity at 100 µM was 17.3% in the test with HUVECs (setting [8]) and 15.5% in the test on HUVECs (setting [9]). Further, the minimal effective concentration was determined as 0.36 µM in test [1] (iPSC-EC tube formation, top concentration 100.00 µM, read-out: endo.mtl.18hr POD); 1.03 µM in test [1] (iPSC-EC tube formation, top concentration 100.00 µM, read-out: endo.tlps.18hr POD); 0.49 µM in test [1] (iPSC-EC tube formation, top concentration 100.00 µM, read-out: endo.tta.18hr POD); 0.51 µM in test [1] (iPSC-EC tube formation, top concentration 100.00 µM, read-out: endo.ttl.18hr POD); 1.14 µM in the test on HUVECs (HUVECs, top concentration 100.00 µM, read-out: huvec.mtl.18hr POD); 1.01 µM in the test with HUVECs (HUVECs, top concentration 100.00 µM, read-out: huvec.tlps.18hr POD). The minimal effective concentration in the test with HUVECs (HUVECs, top concentration 100.00 µM, read-out: huvec.tta.18hr POD) was 3.65 µM; in the test on HUVECs (HUVECs, top concentration 100.00 µM, read-out: huvec.ttl.18hr POD), 3.26 µM.

With `Oc1cccc(-c2ccc(Cl)cc2)c1` [3'-OH-PCB 3], the minimal effective concentration in test [1] (setting [10]) amounted to 0.36 µM; in test [1] (setting [11]), 1.03 µM; in test [1] (setting [12]), 0.49 µM; in test [1] (setting [13]), 0.51 µM; in the test with HUVECs (setting [14]), 1.14 µM; with HUVECs (setting [15]) it was 1.01 µM. For the same compound, the minimal effective concentration with HUVECs (setting [16]) turned out to be 3.65 µM; in the test on HUVECs (setting [17]), 3.26 µM.

On to `O=S(=O)(O)Oc1cccc(-c2ccc(Cl)cc2)c1` [3'-PCB 3 sulfate], for which the minimal effective concentration is 0.58 µM in test [1] (setting [10]); 38.6 µM in test [1] (setting [11]); 11.6 µM in test [1] (setting [12]); 8.75 µM in test [1] (setting [13]); 15.5 µM in the test on HUVECs (setting [14]); 100 µM in the test with HUVECs (setting [15]). Besides, the minimal effective concentration in the test with HUVECs (setting [16]) and in the test on HUVECs (setting [17]) was 100 µM in each case.
